Data from patent US20190284129A1, “LIPID COMPOUNDS AND COMPOSITIONS AND THEIR OPTHALMIC USE” (BIOZEP AS, priority 2015, published 2019).

Molecular target: T1, human PPARalpha receptor (Homo sapiens, UniProt Q07869)
T1 construct: expressed in transfected cells; host or cells: HEK293 (DSMZ ACC 305)
T1 sequence (Q07869 239-466 limits assumed): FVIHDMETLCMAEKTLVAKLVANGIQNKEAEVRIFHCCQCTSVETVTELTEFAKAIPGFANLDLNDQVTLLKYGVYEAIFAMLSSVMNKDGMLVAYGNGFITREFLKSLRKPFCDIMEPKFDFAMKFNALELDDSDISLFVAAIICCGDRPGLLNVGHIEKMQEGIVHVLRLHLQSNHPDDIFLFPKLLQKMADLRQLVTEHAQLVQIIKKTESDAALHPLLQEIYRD
Assay: cellular GAL4 reporter gene assay (M1H) in HEK293 cells, PPARalpha
Type: cell-based
Details: agonist mode
Method: The compounds BIZ-102 (Example 2), BIZ-103 (Example 5) and BIZ-106 were tested at the human PPARalpha receptor in a cellular GAL4 Reporter gene assay. The assay was run in agonist and antagonist mode to detect agonistic as well as antagonistic activities of the tested compounds.
Performance of the GAL4 cellular reporter assay:
Day 1: Cells were seeded in 96 well plates in plating medium (MEM with serum), incubation overnight at 37° C., 5% CO2.
Day 2: Removal of plating medium
Addition of PEI-based transfection agent
Incubation for 4-6 hours at 37° C., 5% CO2
Addition of assay medium (MEM with serum)
Addition of compounds (dilution series was generated in MEM with serum)
Incubation overnight at 37° C., 5% CO2
Day 3: Removal of assay medium (16-20 hours after compound addition)
Addition of Passive Lysis Buffer (Promega)
15 mins incubation at room temperature
Addition of luciferase buffers and measurement in a dual-flash procedure
The assays were done in HEK293 cells (DSMZ ACC 305). The plasmids used in the GAL4 assay system were derivatives of Stratagene's M2H plasmids: the reporter plasmid pFR-Luc (containing a synthetic promoter with five tandem repeats of the yeast GAL4 binding sites that control expression of the Photinus pyralis (American firefly) luciferase gene), and pCMV-BD (for fusions of nuclear receptor ligand binding domains to the DNA-binding domain of the yeast protein GAL4). In order to improve experimental accuracy, a second reporter—Renilla reniformis luciferase, driven by a constitutive promoter—was included as an internal control. Using the control reporter (Renilla Luciferase) allowed corrections for variations in experimental handling, e.g. transfection efficacy, cell viability, pipetting errors, cell lysis efficiency and assay efficiency.
Primary read out of the assays was loaded into PhAST (Phenex Assay and Screening Tool) and checked for assay quality (generation of SB and Zprime values). […] Within PhAST there are two measured and one calculated data layers:
LAYER1 (measured)—contains the activity values of the firefly luciferase activities and is a direct measure for modulation of the cofactor binding properties of the Nuclear Receptors by the tested compounds.
LAYER2 (measured)—contains the activity values of the renilla luciferase activities and is used as normalisation layer. As the renilla luciferase is expressed under control of the constitutively active CMV promoter, moderate well-to-well differences can be used to correct for variations in experimental handling.
LAYER3 (calculated)—is calculated according to the following equation: […]
1000*Firefly luciferase value/Renilla luciferase value
These normalised values are, as well as LAYER1, a measure for the modulation of the cofactor binding properties of the nuclear receptors by the tested compounds.

Efficacy vs. Fenofibric Acid (HEK293): 45%
Efficacy vs. GW7647 (HEK293): 150%
EC50 (HEK293, GAL4 reporter): 350 nM
Compound: CCCCC/C=C\C/C=C\C/C=C\C/C=C\CCC(CC)C(=O)O (stereo not drawn) [BIZ-102, (All-Z) 2-ethyl-5,8,11,14-eicosatetraenoic Acid]
